Laboratory results as given in the supplement of paper PMC4862054.

Experiments:
Details in all cases: incubation time: 72 h
HDQ-P1 [1] = assay: normalised viability (% of control), CellTiter-Blue; higher = more viable cells (about 100 = DMSO control)
Procedure: (§1)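 DSRT, CellTiter-Blue viability, 72 h incubation. Signal is normalised to DMSO and benzethonium chloride controls. Value is the normalised response at dose 7.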

CAL-148 [2] = assay: as above
Procedure: as §1

DU-4475 [3] = assay: as above
Procedure: as §1

CAL-51 [4] = assay: as above
Procedure: as §1

MDA-MB-453 = assay: as above
Procedure: as §1

CAL-85-1 = assay: as above
Procedure: as §1

HCC1599 = assay: normalised response (% of control), CellTiter-Glo; higher = more viable cells (100 = DMSO, 0 = benzethonium chloride kill control)
Procedure, shortened: (§2)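 Normalised signals at single concentrations make up the values. They come from breast cancer cell lines seeded (20 µl suspension) into 384-well plates with compound at 5 concentrations in 10-fold steps over a compound-specific 10,000-fold range, incubated 72 h, and read for CellTox Green fluorescence then CellTiter-Glo luminescence. Each plate was normalised to 0.1 % DMSO (100) and a positive kill control (0).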

MDA-MB-468 = assay: as above
Procedure, shortened: as §2

HDQ-P1 [5] = assay: as above
Procedure, shortened: as §2

MFM-223 = assay: as above
Procedure, shortened: as §2

CAL-148 [6] = assay: as above
Procedure, shortened: as §2

SK-BR-3 [7] = assay: as above
Procedure, shortened: as §2

DU-4475 [8] = assay: as above
Procedure, shortened: as §2

BT-474 = assay: as above
Procedure, shortened: as §2

CAL-51 [9] = assay: as above
Procedure, shortened: as §2

BT-549 [10] = assay: as above
Procedure, shortened: as §2

CAL-120 = assay: as above
Procedure, shortened: as §2

MDA-MB-436 = assay: as above
Procedure, shortened: as §2

MDA-MB-231 = assay: as above
Procedure, shortened: as §2

MCF-10A [11] = assay: as above
Procedure, shortened: as §2

Hs578T = assay: as above
Procedure, shortened: as §2

HDQ-P1 [12] = assay: as above; remark: listed apart in the source
Procedure, shortened: as §2

SK-BR-3 [13] = assay: as above; remark: listed apart in the source
Procedure, shortened: as §2

BT-549 [14] = assay: as above; remark: listed apart in the source
Procedure, shortened: as §2

MCF-10A [15] = assay: as above; remark: listed apart in the source
Procedure, shortened: as §2

Compound	normalised viability (HDQ-P1 [1]) [%]	normalised viability (CAL-148 [2]) [%]	normalised viability (DU-4475 [3]) [%]	normalised viability (CAL-51 [4]) [%]	normalised viability (MDA-MB-453) [%]	normalised viability (CAL-85-1) [%]	normalised response (HCC1599) [%]	normalised response (MDA-MB-468) [%]	normalised response (HDQ-P1 [5]) [%]	normalised response (MFM-223) [%]	normalised response (CAL-148 [6]) [%]	normalised response (SK-BR-3 [7]) [%]	normalised response (DU-4475 [8]) [%]	normalised response (BT-474) [%]	normalised response (CAL-51 [9]) [%]	normalised response (BT-549 [10]) [%]	normalised response (CAL-120) [%]	normalised response (MDA-MB-436) [%]	normalised response (MDA-MB-231) [%]	normalised response (MCF-10A [11]) [%]	normalised response (Hs578T) [%]	normalised response (HDQ-P1 [12]) [%]	normalised response (SK-BR-3 [13]) [%]	normalised response (BT-549 [14]) [%]	normalised response (MCF-10A [15]) [%]
CN(C)CCOc1ccc(/C(=C(/CCCl)c2ccccc2)c2ccccc2)cc1 [Toremifene] (1000 nM)	124	108	97.4	100	106	99.7	102	97.6	96.6	101	99.2	106	98.3	98.7	108	104	98.5	104	92.6	92.3	107				
O=P1(N(CCCl)CCCl)NCCCO1 (centres undefined) [Cyclophosphamide] (40000 nM)																						96.8	108	100	109
NC(=O)c1ccc(I)c([N+](=O)[O-])c1 [Iniparib] (1000 nM)	99.6	87.9	108	95.3	89.2	83.3	105	83.8	97	81.3	83.3	78	92.3	90	126	101	93.2	88.2	90	82	94.6				
N#Cc1ccc(COC[C@H]2O[C@@H](n3c(NCc4ccc(Cl)c(Cl)c4)nc4c(N)ncnc43)[C@H](O)[C@@H]2O)cc1 (10000 nM)																						69.6	47.4	61.8	59.2
c1ccc2c(CCNc3ccc(Nc4ccncc4)cc3)c[nH]c2c1 [Serdemetan] (1000 nM)	96.4	77.3	104	102	85.2	75.9	114	77.8	90	97	71.1	79.6	90.3	76.4	24.4	84.2	93.7	89.5	82.4	86.2	104				
Cc1ccc(NC(=O)c2ccc(CN3CCN(C)CC3)cc2)cc1Nc1nc(-c2cccnc2)cs1 [Masitinib] (10000 nM)																						75.5	31.8	59.5	91.6
COCC[n+]1c2c(n(Cc3cnccn3)c1C)C(=O)c1ccccc1C2=O [YM155] (1000 nM)	0.25	2.29	1.98	1.61	7.19	2.27	-0.01	-0.57	-0.17	10.7	-0.23	-0.16	1.45	0.29	-0.05	-0.05	3.05	-0.32	-0.22	-0.7	25.6				
COCC1(CO)C(=O)C2CCN1CC2 (centres undefined) [Prima-1 Met] (1000 nM)	106	102	108	102	80.5	90.9	106	105	96.3	103	101	101	105	102	108	96.8	99.3	106	104	97.8	101				
Cc1[nH]c2ccccc2c1CCNCc1ccc(/C=C/C(=O)NO)cc1 [Panobinostat] (100 nM)	32.3	5.94	3.38	25.6	2.59	15.6	24.2	28.2	62.3	35.2	3.76	1.76	4.91	13.4	24.6	46.2	41.5	55	10.2	49.1	27.4				
COc1cc(OC2CCN(C)CC2)ccc1Nc1ncc2c(n1)n(C1CCCC1)c(=O)n2C [AZ 3146] (1000 nM)	89.4	108	99	75.2	90.6	108	112	104	98.4	98.2	94.5	74.6	94.6	96.5	74.5	104	98	110	96.7	92.5	100				
COc1cc(OC2CCN(C)CC2)ccc1Nc1ncc2c(n1)n(C1CCCC1)c(=O)n2C [AZ 3146] (10000 nM)																						70.6	52.4	64.3	47.8
O=C(Nc1cccnc1)N1CCC(Cc2cccc(Oc3ccc(C(F)(F)F)cn3)c2)CC1 [PF-3845] (1000 nM)	144	101	81.3	101	86	83	104	95.1	98.1	109	99.4	101	98.3	99.2	98.3	98.3	99	104	106	111	104				
O=P1(N(CCCl)CCCl)NCCCO1 (centres undefined) [Cyclophosphamide] (4000 nM)	99.2	121	97	99	105	101	109	92.9	98	106	100	107	104	93.1	99.4	103	94.4	97.8	99.5	103	111				
CN(C)CCOc1ccc(/C(=C(/CCCl)c2ccccc2)c2ccccc2)cc1 [Toremifene] (10000 nM)																						87.7	67.1	81.8	63.5
CC(C)C[C@@H](C(=O)N[C@H](C(=O)OC1CCCC1)c1ccccc1)[C@H](O)C(=O)NO [Tosedostat] (10000 nM)																						59.9	74	42.7	76.5
Cc1[nH]c2ccccc2c1CCNCc1ccc(/C=C/C(=O)NO)cc1 [Panobinostat] (1000 nM)																						26.4	0.27	14.4	11
O=C(/C=C/c1cccc(S(=O)(=O)Nc2ccccc2)c1)NO [Belinostat] (10000 nM)																						30.4	0	17.8	16.1
NC(=O)c1ccc(I)c([N+](=O)[O-])c1 [Iniparib] (10000 nM)																						96.3	71.1	96.5	76.3
c1ccc2c(CCNc3ccc(Nc4ccncc4)cc3)c[nH]c2c1 [Serdemetan] (10000 nM)																						73.6	15.5	23.6	52.6
CNC(=O)c1cc(Oc2ccc(NC(=O)Nc3ccc(Cl)c(C(F)(F)F)c3)c(F)c2)ccn1 [Regorafenib] (10000 nM)																						57.4	51.7	43.7	46.2
C=C1C[C@@H]2[C@H](CC[C@]3(C)C(=O)CC[C@@H]23)[C@@]2(C)C=CC(=O)C=C12 [Exemestane] (10000 nM)																						92.3	89.3	94.5	107
COCC[n+]1c2c(n(Cc3cnccn3)c1C)C(=O)c1ccccc1C2=O [YM155] (10000 nM)																						1.64	-0.43	-0.36	-0.72
O=C(Nc1ccncc1)C(=O)c1cn(Cc2ccc(Cl)cc2)c2ccccc12 [Indibulin] (10000 nM)																						72	27	39.2	76.1
O=C(Nc1cccnc1)N1CCC(Cc2cccc(Oc3ccc(C(F)(F)F)cn3)c2)CC1 [PF-3845] (10000 nM)																						95.2	57.1	71.7	93.4
CN(C)c1nc(N(C)C)nc(N(C)C)n1 [Altretamine] (10000 nM)																						97.8	108	102	107
CCc1c2c(nc3ccc(OC(=O)N4CCC(N5CCCCC5)CC4)cc13)-c1cc3c(c(=O)n1C2)COC(=O)[C@]3(O)CC [Irinotecan] (10000 nM)																						73.3	47.4	49.1	68.2
Oc1ccc2c(c1)CC[C@H](c1ccccc1)[C@@H]2c1ccc(OCCN2CCCC2)cc1 [Lasofoxifene] (1000 nM)																						94.1	105	95.2	117
COc1cc2ncnc(Nc3ccc(F)c(Cl)c3)c2cc1OCCCN1CCOCC1 [Gefitinib] (10000 nM)																						56	27.1	73.6	26.1
COCC1(CO)C(=O)C2CCN1CC2 (centres undefined) [Prima-1 Met] (10000 nM)																						96.7	106	53.3	106
